According to US9481610B2, “Use of a fertilizer containing L-amino acid for improving root growth and growth of mycorrhiza” (SweTree Technologies AB, priority 2007, dated 2016):

How the values were obtained:
Scots pine roots = assay: Evaluation of mycorrhiza of Scots pine roots (chitin content); type: in vivo; conditions: fertilization with arginine
Arabidposis thaliana = assay: Growth and allocation of biomass as affected by nitrogen form in Arabidopsis; type: in vivo; conditions: sterile culture 21 days, total nitrogen 6 mM

Row | SMILES | chitin content of roots versus reference (in words) (Scots pine roots) | Root fraction (Arabidposis thaliana) | Total biomass (Arabidposis thaliana)
1 | N=C(N)NCCC[C@H](N)C(=O)O [L-Arginine] | substantially higher content of chitin in roots |  | 
2 | O=[N+]([O-])O [nitrate] |  | 0.12 | 4.63
